Test results published in the Kinase Knowledgebase extract (Sharma et al. 2016).
pIC50: −log10 of the molar value. Values joined by “and” are separate entries in the source; they are usually repeats but may differ in a detail not shown here. Equal entries are not always repeated.

Molecular target: PIK3CA (human) (UniProt P42336)
Assay: Enzyme Assay

Sequence of PIK3CA (human) (P42336 whole entry, looked up): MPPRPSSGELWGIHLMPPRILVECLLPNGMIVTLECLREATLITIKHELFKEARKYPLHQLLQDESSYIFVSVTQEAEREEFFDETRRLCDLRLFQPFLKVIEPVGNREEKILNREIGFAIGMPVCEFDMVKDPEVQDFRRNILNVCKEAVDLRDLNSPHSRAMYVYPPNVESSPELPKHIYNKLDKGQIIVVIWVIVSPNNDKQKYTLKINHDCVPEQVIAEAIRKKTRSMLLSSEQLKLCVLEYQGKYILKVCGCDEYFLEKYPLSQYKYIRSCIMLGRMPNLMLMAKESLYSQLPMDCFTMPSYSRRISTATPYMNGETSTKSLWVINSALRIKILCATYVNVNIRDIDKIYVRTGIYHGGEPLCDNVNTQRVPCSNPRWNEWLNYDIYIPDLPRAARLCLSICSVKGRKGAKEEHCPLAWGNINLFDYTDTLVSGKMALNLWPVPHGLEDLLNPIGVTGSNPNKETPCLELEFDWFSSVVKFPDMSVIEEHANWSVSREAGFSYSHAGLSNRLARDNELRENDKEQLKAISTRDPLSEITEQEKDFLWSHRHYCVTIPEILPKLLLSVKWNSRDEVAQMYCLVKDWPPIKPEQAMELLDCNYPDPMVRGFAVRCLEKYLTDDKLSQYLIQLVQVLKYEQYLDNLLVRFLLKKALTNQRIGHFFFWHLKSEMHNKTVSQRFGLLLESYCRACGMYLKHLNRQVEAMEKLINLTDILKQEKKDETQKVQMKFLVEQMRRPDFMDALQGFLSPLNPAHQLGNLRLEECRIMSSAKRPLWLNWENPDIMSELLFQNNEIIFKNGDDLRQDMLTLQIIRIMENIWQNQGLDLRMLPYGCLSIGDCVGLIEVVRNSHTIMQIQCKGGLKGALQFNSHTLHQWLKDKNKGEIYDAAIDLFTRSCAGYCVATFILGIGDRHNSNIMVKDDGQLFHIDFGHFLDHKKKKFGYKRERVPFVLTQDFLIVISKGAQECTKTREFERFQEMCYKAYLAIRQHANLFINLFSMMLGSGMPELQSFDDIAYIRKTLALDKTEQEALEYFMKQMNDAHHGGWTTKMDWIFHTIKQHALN

SMILES | pIC50
CCc1ncnc(-c2cc(F)c(C(=O)N3CCC4(CC3)CC(=O)CO4)c(F)c2)c1C#Cc1ccc(N)nc1 | 6.84
CCc1ncnc(-c2ccc(C(=O)N3CCC(OC)CC3)c(C)c2)c1C#Cc1ccc(N)nc1 | 7.17
CCc1ncnc(-c2ccc(C(=O)N(C)O)c(Cl)c2)c1C#Cc1ccc(N)nc1 | 7.17
Cc1ncnc(-c2ccc(Cl)c(C(=O)N3CCCCC3)c2)c1C#Cc1ccc(N)nc1 | 6.51
CCc1ncnc(-c2ccc(C(=O)N3CCC(N(C)C)CC3)c(C)c2)c1C#Cc1ccc(N)nc1 | 6.63
CCc1ncnc(-c2ccc(C(=O)N3CCC(O)CC3)c(Cl)c2)c1C#Cc1ccc(N)nc1 | 7.28
CCc1ncnc(-c2ccc(Cl)c(C(=O)N(C)C)c2)c1C#Cc1ccc(N)nc1 | 6.71
CCc1ncnc(-c2ccc(C(=O)N(C)CCN3CCCC3=O)c(C)c2)c1C#Cc1ccc(N)nc1 | 7.50
CCc1ncnc(-c2ccc(C(=O)N3CCC(OC)CC3)c(F)c2)c1C#Cc1ccc(N)nc1 | 7.09
CCc1ncnc(-c2ccc(C(=O)N3CC[C@H](O)C3)c(Cl)c2)c1C#Cc1ccc(N)nc1 | 7.24
CCc1ncnc(-c2ccc(C(=O)N3CCN(CCN(C)C)CC3)c(Cl)c2)c1C#Cc1ccc(N)nc1 | 6.43
CCc1ncnc(-c2ccc(C(=O)N3CCCC(O)C3)c(Cl)c2)c1C#Cc1ccc(N)nc1 (configuration not stated) | 7.19
CCc1ncnc(-c2ccc(C(=O)NC3CCCN(C)C3)c(Cl)c2)c1C#Cc1ccc(N)nc1 (configuration not stated) | 6.29
CCc1ncnc(-c2ccc(C(=O)N3CCC[C@H]3CO)c(F)c2)c1C#Cc1ccc(N)nc1 | 6.87
CCNc1ccc(C#Cc2c(CC)ncnc2-c2ccc(C(=O)N3CCN(C4CCC4)CC3)c(F)c2)cn1 | 6.69
CCc1ncnc(-c2ccc(C(=O)N3CCNCC3)c(Cl)c2)c1C#Cc1ccc(N)nc1 | 6.79
CCc1ncnc(-c2ccc(C(=O)N3CCC(C)(O)CC3)c(F)c2)c1C#Cc1ccc(N)nc1 | 6.96
CCc1ncnc(-c2ccc(C(=O)N3CCC(N4CCN(C)CC4)CC3)c(C)c2)c1C#Cc1ccc(N)nc1 | 6.51
CCc1ncnc(-c2ccc(C(=O)N3CCC(C(F)(F)F)CC3)c(Cl)c2)c1C#Cc1ccc(N)nc1 | 6.30
CCc1ncnc(-c2ccc(C(=O)N3CCC(N4CCC(C)CC4)C3)c(C)c2)c1C#Cc1ccc(N)nc1 (configuration not stated) | 6.70
CCc1ncnc(-c2ccc(C(=O)N3CCC(C4CCN(C)CC4)CC3)c(Cl)c2)c1C#Cc1ccc(N)nc1 | 6.43

SMILES | pIC50
CCc1ncnc(-c2ccc(C(=O)N3CCC(C(C)(C)O)CC3)c(Cl)c2)c1C#Cc1ccc(N)nc1 | 7.00
CCc1ncnc(-c2ccc(C(=O)N3CC(O)CO3)c(F)c2)c1C#Cc1ccc(N)nc1 (configuration not stated) | 7.19
CCc1ncnc(-c2ccc(C(=O)N3CCN(C4CCCC4)CC3)c(C)c2)c1C#Cc1ccc(N)nc1 | 7.04
CCc1ncnc(-c2ccc(C(=O)N3CCN4CCCCC4C3)c(C)c2)c1C#Cc1ccc(N)nc1 (configuration not stated) | 6.94
CCc1ncnc(-c2ccc(C(=O)N3CCCOCC3)c(Cl)c2)c1C#Cc1ccc(N)nc1 | 7.18
CCc1ncnc(-c2ccc(C(=O)N3CCN(CC4CC4)CC3)c(Cl)c2)c1C#Cc1ccc(N)nc1 | 6.64
CCc1ncnc(-c2ccc(C(=O)N3CCCN(C)CC3)c(Cl)c2)c1C#Cc1ccc(N)nc1 | 6.39
CCc1ncnc(-c2ccc(C(=O)NC3CC(N4CCC(O)CC4)C3)c(F)c2)c1C#Cc1ccc(N)nc1 (configuration not stated) | 6.45
CCc1ncnc(-c2ccc(C(=O)N3CC[C@@H](N(C)C)C3)c(OC)c2)c1C#Cc1ccc(N)nc1 | 6.45
CCc1ncnc(-c2ccc(C(=O)N3CCN(C(C)C)CC3)c(Cl)c2)c1C#Cc1ccc(N)nc1 | 6.61
CCc1ncnc(-c2ccc(C(=O)N3C[C@H]4C[C@@H]3CN4C)c(F)c2)c1C#Cc1ccc(N)nc1 | 6.48
CCc1ncnc(-c2ccc(C(=O)N3CCC(C)(O)CC3)c(Cl)c2)c1C#Cc1ccc(N)nc1 | 7.11
CCc1ncnc(-c2ccc(C(=O)N3CC[S+]([O-])CC3)c(F)c2)c1C#Cc1ccc(N)nc1 | 7.34
CCc1ncnc(-c2ccc(C(=O)N3CC[C@@H](O)C3)c(Cl)c2)c1C#Cc1ccc(N)nc1 | 7.18
CCc1ncnc(-c2ccc(C(=O)N3CCC(OC)CC3)c(Cl)c2)c1C#Cc1ccc(N)nc1 | 7.03
CCc1ncnc(-c2ccc(C(=O)N3CCN(c4ccncc4)CC3)c(Cl)c2)c1C#Cc1ccc(N)nc1 | 6.68
CCc1ncnc(-c2ccc(C(=O)N3CCOC(C)(C)C3)c(F)c2)c1C#Cc1ccc(N)nc1 | 6.97
CCc1ncnc(-c2ccc(C(=O)N3CCCC(N(C)C)C3)c(C)c2)c1C#Cc1ccc(N)nc1 (configuration not stated) | 6.76
CCc1ncnc(-c2ccc(C(=O)N(C)C)c(F)c2)c1C#Cc1ccc(C)nc1 | 6.65
CCc1ncnc(-c2ccc(C(=O)N3CCN(S(=O)(=O)CC)CC3)c(C)c2)c1C#Cc1ccc(N)nc1 | 7.43
CCc1ncnc(-c2ccc(C(=O)N3CC[S+]([O-])CC3)c(Cl)c2)c1C#Cc1ccc(N)nc1 | 7.20 and 7.19
